The results in this text go back to ChEMBL document CHEMBL1201862, “PubChem BioAssay data set” (2004).

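Growth conditions: 96-well plates. Treatment: test compound, 48 hours, 5 concentrations. Analysis: linear interpolation between bracketing concentrations; unreached endpoints set to highest concentration. GI50 is the concentration that inhibits growth by half.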 Active and inactive are the calls of the source. Cut-off read from the data, not from the text of the source: active = GI50 up to about 1.1 µM and inactive = higher.

Holding throughout (test): NCI-60 cell line screen, 48 h
Experiment [1] relates to DLD-1.
The test system of experiment [2] is DMS-114.
Experiment [3] deals with DMS-273.
Experiment [4] has as its system HCC 2998.
For experiment [5], the system named is HCT-15.
Experiment [6] has as its system HOP-62.
Experiment [7] has as its system IGROV-1.
In experiment [8] the test system is K562.
In experiment [9] the test system is KM-20L2.
Experiment [10] has as its system OVCAR-3.
Experiment [11] concerns RXF 393.
In experiment [12] the test system is SF-268.
Experiment [13] relates to SF-295.
Experiment [14] deals with SK-MEL-2.
Experiment [15] concerns SNB-19.
Experiment [16] has as its system TK-10.
Experiment [17] concerns U-251.
The test system of experiment [18] is ACHN.
Experiment [19] relates to MCF7.

`CC(=O)Oc1ccc(Nn2c3ccccc3c3ccccc32)c(C)c1`: the GI50 in experiment [1] is 43.9 µM (inactive); in [2] it was 27.1 µM (inactive); in experiment [3], 19.6 µM (inactive); in experiment [4], 27.7 µM (inactive); in [5], 24.6 µM; in experiment [6] it was 36.1 µM (inactive). For the same molecule, the GI50 is 23.6 µM (inactive) in [7]; 32.1 µM (inactive) in experiment [8]; 29.4 µM (inactive) in experiment [9]; 42.6 µM (inactive) in [10]; 29.5 µM (inactive) in experiment [11]; 45.9 µM (inactive) in experiment [12]. Also, the GI50 in [13] is 25.8 µM (inactive); in experiment [14], 37 µM (inactive); in [15] it was 78.7 µM (inactive); in [16], 39.3 µM (inactive); in [17], 46 µM (inactive).
Take `CCCCCCCCCCCC(=O)C1=C(O)CCC(O)C1=O` (stereo not drawn): the GI50 was 19.4 µM (inactive) in [18]; 18.2 µM (inactive) in [1]; 14.2 µM (inactive) in [2]; 7.29 µM (inactive) in experiment [3]; 22 µM (inactive) in [4]; 8.89 µM in [5]. Besides, the GI50 in [6] was 15.2 µM (inactive); in [7] it was 19.9 µM (inactive); in experiment [8] it was 7.6 µM (inactive); in [9], 11.7 µM (inactive); in [10], 10.8 µM (inactive); in experiment [11] it was 35.1 µM (inactive). For the same molecule, the GI50 in [12] was 27.2 µM (inactive); in experiment [13] it was 8.17 µM (inactive); in [14], 11.9 µM (inactive); in experiment [15], 9.08 µM (inactive); in [16] it was 18.4 µM (inactive); in experiment [17], 14.6 µM (inactive).
Consider `CC(C)CC(N/C=C1/N=C(c2ccccc2)OC1=O)C(=O)O` (stereo not drawn), for which the GI50 in experiment [18] is > 100 µM (inactive); in experiment [1], > 100 µM (inactive); in [2] it was > 100 µM (inactive); in experiment [3], > 100 µM (inactive); in experiment [4], > 100 µM (inactive); in experiment [5], above 100 µM. In addition, the GI50 in experiment [6], in experiment [7], in experiment [8], in experiment [9], in experiment [10] and in experiment [11] was > 100 µM (inactive) each time. Besides, the GI50 in experiment [12], in [13], in experiment [14], in experiment [15], in experiment [16] and in [17] was > 100 µM (inactive) throughout.
On to `O=C(CC1(O)C(=O)Nc2c(Cl)cc(Cl)cc21)c1ccco1` (stereo not drawn), for which the GI50 in experiment [18] is 83.6 µM (inactive); in experiment [1], 49.3 µM (inactive); in experiment [2], 22.8 µM (inactive); in [3] it was 38.8 µM (inactive); in [4] it was 48.8 µM (inactive); in experiment [5], 40.5 µM. In addition, the GI50 is 60.1 µM (inactive) in [6]; 30.3 µM (inactive) in [8]; 48.3 µM (inactive) in [9]; 21.2 µM (inactive) in [10]; 78 µM (inactive) in experiment [11]; 50 µM (inactive) in experiment [12]. Besides, the GI50 was 32 µM (inactive) in experiment [13]; 60.7 µM (inactive) in experiment [14]; > 100 µM (inactive) in [15]; 88.1 µM (inactive) in [16]; > 100 µM (inactive) in experiment [17].
Take `CC1(O)C=CC(=O)C=C1`: the GI50 was 27.5 µM (inactive) in [18]; 12.4 µM (inactive) in [1]; 16.4 µM (inactive) in experiment [2]; 18.3 µM (inactive) in experiment [3]; > 71.6 µM (inactive) in experiment [4]; 16 µM in experiment [5]. The GI50 in experiment [6] was > 52.6 µM (inactive); in experiment [7] it was 26.8 µM (inactive); in [8], 33.5 µM (inactive); in experiment [9], 32 µM (inactive); in [10], 24.2 µM (inactive); in [11], 21.6 µM (inactive). The GI50 in experiment [12] was 13.9 µM (inactive); in experiment [13], 57.1 µM (inactive); in experiment [14] it was 24.7 µM (inactive); in [15], 25.7 µM (inactive); in experiment [16], 44.1 µM (inactive); in [17], 21.9 µM (inactive).
For the molecule `COc1cc(/C=C/C(=O)O)ccc1C(=O)OCc1ccccc1`, the GI50 was > 100 µM (inactive) in experiment [1]; > 100 µM (inactive) in experiment [2]; > 100 µM (inactive) in experiment [3]; > 100 µM (inactive) in experiment [4]; above 100 µM in [5]; > 100 µM (inactive) in experiment [6]. Besides, the GI50 in experiment [7], in [8], in experiment [9], in experiment [19], in experiment [10] and in experiment [11] was > 100 µM (inactive) in each case. The GI50 in experiment [12], in [13], in experiment [14], in experiment [15] and in experiment [17] was > 100 µM (inactive) in each case.
As to `O=C(NNc1ccc([N+](=O)[O-])cc1)C1OC(CO)C(O)C1O` (stereo not drawn), the GI50 in [18] was > 100 µM (inactive); in [1], 47.1 µM (inactive); in [2], > 100 µM (inactive); in experiment [3], > 100 µM (inactive); in experiment [4] it was > 100 µM (inactive); in experiment [5], 54.8 µM. The GI50 in experiment [6] was > 100 µM (inactive); in [7], > 100 µM (inactive); in experiment [8] it was 67 µM (inactive); in [9], > 100 µM (inactive); in experiment [10], > 100 µM (inactive); in [11], > 100 µM (inactive). For the same molecule, the GI50 in [12], in experiment [13], in experiment [14], in experiment [15], in experiment [16] and in experiment [17] was > 100 µM (inactive) in each case.
For `COc1cc(C2C(C(=O)Nc3ccccc3C)=C(C)NC(C)=C2C(=O)Nc2ccccc2C)ccc1O`, the GI50 in experiment [18], in [1], in experiment [2], in [3], in experiment [4] and in [6] was > 100 µM (inactive) in each case. Besides, the GI50 in experiment [7], in experiment [8], in experiment [9], in [10], in experiment [11] and in experiment [13] was > 100 µM (inactive) each time. In addition, the GI50 in experiment [14], in experiment [15], in [16] and in experiment [17] was > 100 µM (inactive) throughout.
With `COC(=O)C#CCC1CCCC1C1SCCS1` (stereo not drawn), the GI50 in experiment [18] is 34 µM (inactive); in experiment [1], 73.5 µM (inactive); in experiment [2] it was > 100 µM (inactive); in [3], 30.4 µM (inactive); in experiment [4] it was > 100 µM (inactive); in experiment [6] it was > 100 µM (inactive). Also, the GI50 in experiment [7] is > 100 µM (inactive); in experiment [8], 43.5 µM (inactive); in experiment [9], 59.6 µM (inactive); in experiment [10] it was 88.3 µM (inactive); in experiment [11], > 100 µM (inactive); in [12], > 100 µM (inactive). Moreover, the GI50 was 90.6 µM (inactive) in [13]; 26.2 µM (inactive) in [14]; 91.4 µM (inactive) in [15]; > 100 µM (inactive) in experiment [16]; 59.6 µM (inactive) in experiment [17].
As for `CN1c2ccccc2N(C(=O)c2ccc([N+](=O)[O-])cc2)C(CC(=O)O)c2cccn21` (stereo not drawn), the GI50 is > 100 µM (inactive) in experiment [18]; > 100 µM (inactive) in experiment [1]; > 100 µM (inactive) in experiment [2]; > 100 µM (inactive) in [3]; > 100 µM (inactive) in experiment [4]; above 100 µM in experiment [5]. Also, the GI50 in [6], in experiment [7], in experiment [8], in experiment [9], in experiment [10] and in [11] was > 100 µM (inactive) throughout. The GI50 in experiment [12], in experiment [13], in experiment [14], in [15] and in [16] was > 100 µM (inactive) each time.
As for `COC1O[C@H]2CCN(C(=O)OCc3ccccc3)[C@H]2[C@H]1OCc1ccccc1` (stereo partly drawn), the GI50 in experiment [18] was 39.6 µM (inactive); in experiment [1], 48.3 µM (inactive); in experiment [2] it was 29.6 µM (inactive); in experiment [3] it was 39.1 µM (inactive); in experiment [4], 47.6 µM (inactive); in experiment [5] it was 36.5 µM. In addition, the GI50 in experiment [6] is > 100 µM (inactive); in [7], 49.5 µM (inactive); in experiment [8], 30.5 µM (inactive); in experiment [9] it was 69.2 µM (inactive); in [10], 42.6 µM (inactive); in experiment [11], 50 µM (inactive). Moreover, the GI50 in [12] was 50.2 µM (inactive); in [13], 49.9 µM (inactive); in experiment [14] it was 29.8 µM (inactive); in experiment [15], 89.3 µM (inactive); in [16], > 41.4 µM (inactive); in [17] it was 45.9 µM (inactive).
As for `COc1cc2c(cc1OC)-c1c3c(cc4c1[C@@H](C2)N(C)CC4)OCO3`, the GI50 in experiment [1] is 6 µM (inactive); in [2] it was 8.43 µM (inactive); in experiment [3], 3.52 µM (inactive); in [4], 9.35 µM (inactive); in experiment [5], 5.77 µM; in [6], 3.57 µM (inactive). Besides, the GI50 in experiment [7] is 9.62 µM (inactive); in [8], 5.36 µM (inactive); in [9] it was 3.44 µM (inactive); in experiment [19], 1.94 µM (inactive); in experiment [10] it was 13.6 µM (inactive); in experiment [11] it was 8.04 µM (inactive). Further, the GI50 was 7.69 µM (inactive) in [12]; 1.64 µM (inactive) in experiment [13]; 10.9 µM (inactive) in experiment [14]; 5.74 µM (inactive) in experiment [15]; 10.8 µM (inactive) in experiment [17].
